In PMC7893052, “Small molecule induces mitochondrial fusion for neuroprotection via targeting CK2 without affecting its conventional kinase activity” (Signal Transduction and Targeted Therapy, 2021):

Legend:
[1] = target: T1, casein kinase 2 α′ subunit (CK2α′) (Homo sapiens, UniProt P19784); assay: ITC ([…]); also SPR KD […], NanoDSF, CETSA, DARTS, pulldown, LC–MS/MS of covalently modified peptide; format: binding
T1 construct: gene CSNK2A2; human recombinant CK2α′ protein

[2] = target: T2, casein kinase 2 α′ subunit (CK2α′) (Homo sapiens, UniProt P19784, R173A); assay: ITC; format: binding
T2 construct: gene CSNK2A2
T2 sequence (P19784 1-350 R173A): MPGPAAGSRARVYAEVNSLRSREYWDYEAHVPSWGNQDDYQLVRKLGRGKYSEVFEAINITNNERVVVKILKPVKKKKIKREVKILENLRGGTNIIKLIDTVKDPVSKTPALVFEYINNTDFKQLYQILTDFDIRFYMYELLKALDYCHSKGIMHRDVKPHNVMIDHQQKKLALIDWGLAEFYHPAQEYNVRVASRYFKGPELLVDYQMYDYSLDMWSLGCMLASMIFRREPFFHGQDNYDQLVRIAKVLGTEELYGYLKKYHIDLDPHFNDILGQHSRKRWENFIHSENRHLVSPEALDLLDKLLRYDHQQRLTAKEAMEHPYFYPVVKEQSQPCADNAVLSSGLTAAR

T1 sequence (P19784 whole entry): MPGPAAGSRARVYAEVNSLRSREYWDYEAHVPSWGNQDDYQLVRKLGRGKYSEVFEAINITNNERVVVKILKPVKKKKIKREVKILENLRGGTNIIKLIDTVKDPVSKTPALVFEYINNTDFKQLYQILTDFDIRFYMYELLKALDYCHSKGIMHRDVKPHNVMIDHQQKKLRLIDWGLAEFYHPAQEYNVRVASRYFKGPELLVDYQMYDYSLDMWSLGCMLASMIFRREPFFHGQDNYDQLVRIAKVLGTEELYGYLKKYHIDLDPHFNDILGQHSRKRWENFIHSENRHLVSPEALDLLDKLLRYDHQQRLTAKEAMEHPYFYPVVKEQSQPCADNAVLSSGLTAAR

C[C@@H]1O[C@@H](O[C@@H]2[C@@H](O)[C@H](OCCc3ccc(O)c(O)c3)O[C@H](CO[C@@H]3O[C@H](CO)[C@@H](O)[C@H](O)[C@H]3O)[C@H]2OC(=O)/C=C/c2ccc(O)c(O)c2)[C@H](O)[C@H](O)[C@H]1O [ECH, echinacoside] gave a Kd [1] of 1060 nM and a Kd [2] of 413 nM.
